Reference: patent publication US20110111061A1, “Compositions and Methods for the Treatment of Skeletal Metastatic Lesions and Fractures” (priority 2008, published 2011)

Assay: Adriamycin elution from bone cement in vitro
Format: physicochemical
Conditions: one or two vials (10 mg adriamycin each) added to a packet of PMMA bone cement (22.5 g powder + 9 ml liquid monomer)
Protocol: […] […] They were mixed thoroughly to ensure there are no large adriamycin flakes. […] One gram of this composite elutes 340 micrograms of adriamycin within 24 hours in vitro. The prepared bone cement drug powder was then loaded in sterile syringes (2 g/syringe). To prepare the bone cement putty for implantation and in situ polymerization, 1 ml of Confidence™ monomer was added to this powder and mixed thoroughly 5 minutes prior to implantation.

elution of adriamycin from PMMA bone cement without filler: negligible elution
Compound: COc1cccc2c1C(=O)c1c(O)c3c(c(O)c1C2=O)C[C@@](O)(C(=O)CO)C[C@@H]3O[C@H]1C[C@H](N)[C@H](O)[C@H](C)O1 [adriamycin]
